Key:
HCT-116 = assay: Antiproliferative activity against human HCT116 cells by MTT assay; type: functional, cell-based
Caco-2 = assay: Antiproliferative activity against human Caco2 cells by MTT assay; type: functional, cell-based
MDA-MB-231 = assay: Antiproliferative activity against human MDA231 cells by MTT assay; type: functional, cell-based
[1] = target: T1, Prostaglandin G/H synthase 1 (Ovis aries, UniProt P05979); assay: Inhibition of ovine COX1 using arachidonic acid as substrate incubated for 5 mins followed by substrate addition measured after 2 mins by colorimetric based ELISA
T1 sequence (P05979 whole entry): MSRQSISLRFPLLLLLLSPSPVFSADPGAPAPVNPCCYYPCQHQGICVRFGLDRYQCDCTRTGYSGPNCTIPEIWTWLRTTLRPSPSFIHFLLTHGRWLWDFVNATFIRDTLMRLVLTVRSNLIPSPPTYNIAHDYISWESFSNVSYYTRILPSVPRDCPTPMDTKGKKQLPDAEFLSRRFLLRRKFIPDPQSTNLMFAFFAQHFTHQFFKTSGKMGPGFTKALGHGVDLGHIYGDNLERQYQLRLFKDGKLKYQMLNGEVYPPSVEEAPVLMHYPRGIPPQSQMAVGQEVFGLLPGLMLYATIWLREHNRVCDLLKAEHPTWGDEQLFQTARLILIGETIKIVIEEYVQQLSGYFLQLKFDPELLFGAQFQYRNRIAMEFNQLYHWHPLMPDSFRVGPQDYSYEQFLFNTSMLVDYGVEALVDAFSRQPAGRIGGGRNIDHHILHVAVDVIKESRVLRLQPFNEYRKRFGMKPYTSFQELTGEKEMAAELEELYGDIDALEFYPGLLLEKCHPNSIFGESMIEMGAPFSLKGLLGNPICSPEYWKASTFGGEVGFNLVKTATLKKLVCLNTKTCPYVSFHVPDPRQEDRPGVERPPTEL

MCF7 = assay: Antiproliferative activity against human MCF7 cells by MTT assay; type: functional, cell-based
HeLa = assay: Antiproliferative activity against human HeLa cells by MTT assay; type: functional, cell-based

SMILES	IC50 (HCT-116) [µM]	IC50 (Caco-2) [µM]	IC50 (MDA-MB-231) [µM]	IC50 [1] [µM]	IC50 (MCF7) [µM]	IC50 (HeLa) [µM]
COc1ccc2cc(C(C)c3nnc4n3N=C(c3ccccc3)CS4)ccc2c1 (stereo not drawn)	67.4	81.3	49.2			
COc1ccc2cc(C(C)c3n[nH]c(=S)n3N)ccc2c1 (stereo not drawn)	60.5	77.7	41.8	> 25	38.3	20.7
COc1ccc2cc(C(C)C(=O)NN3C(=O)CCC3=O)ccc2c1 (stereo not drawn)	56.2	63.8	52.8	> 25	26.7	30.4
COc1ccc2cc(C(C)C(=O)NN=C3CCCCC3)ccc2c1 (stereo not drawn)	14.5	18.8	9.65	> 25	12.1	13
COc1ccc2cc(C(C)c3nnc4n3NC(=O)CS4)ccc2c1 (stereo not drawn)	> 100	> 100	93.8		85.7	86.4
COc1ccc2cc(C(C)C(=O)NN=C3CCCCCC3)ccc2c1 (stereo not drawn)	44.7	46.1	32.7	> 25	48.2	59.4
COc1ccc2cc(C(C)c3nnc(-c4ccc(O)cc4)o3)ccc2c1 (stereo not drawn)	10.5	33.9	7.29	> 25	5.89	6.15
COc1ccc2cc(C(C)c3n[nH]c(=S)n3/N=C/c3ccc(O)cc3)ccc2c1 (stereo not drawn)	5.14	13.8	4.83	> 25	7.74	9.03
COc1ccc2cc(C(C)c3nnc(-c4ccc([N+](=O)[O-])cc4)o3)ccc2c1 (stereo not drawn)	75	> 100	66.3	> 25	42.1	35.1
COc1ccc2cc(C(C)c3nnc(SCc4ccccc4)o3)ccc2c1 (stereo not drawn)	> 100	> 100	89.4		91.4	> 100
COc1ccc2cc(C(C)c3n[nH]c(=S)n3/N=C/c3ccccc3)ccc2c1 (stereo not drawn)	19.1	28	14.8	> 25	61.7	65.6
COc1ccc2cc(C(C)C(=O)NN3C(=O)C=CC3=O)ccc2c1 (stereo not drawn)	22.1	39.5	11.1	> 25	21.9	15.1
COc1ccc2cc(C(C)C(=O)NN=C3CCCC3)ccc2c1 (stereo not drawn)	> 100	> 100	80.7		71.5	69.1
COc1ccc2cc(C(C)c3nnc(-c4ccc(C)cc4)o3)ccc2c1 (stereo not drawn)	28.4	43.9	16.2	> 25	31.7	19.4
COc1ccc2cc(C(C)c3nnc(SC)o3)ccc2c1 (stereo not drawn)	39.9	73.5	29.5	> 25	57.2	26.2
COc1ccc2cc(C(C)C(=O)NN=C3CCN(C)CC3)ccc2c1 (stereo not drawn)	83.6	> 100	72		68.7	51.6
COc1ccc2cc(C(C)C(=O)NN3C(=O)c4ccccc4C3=O)ccc2c1 (stereo not drawn)	49.8	58.2	37.2	> 25	79.3	78.6
COc1ccc2cc(C(C)c3nnc(SC4CCCC4)o3)ccc2c1 (stereo not drawn)	34.3	50.9	23.2	> 25	47.1	48.9
COc1ccc2cc(C(C)c3n[nH]c(=S)n3/N=C/c3cccc(Br)c3)ccc2c1 (stereo not drawn)	8.76	16	8.14	> 25	9.26	12.1
CN(C)C/C=C/C(=O)Nc1cc2c(Nc3ccc(F)c(Cl)c3)ncnc2cc1O[C@H]1CCOC1 [AFATINIB]	11.4	7.7	7.5		7.1	6.2
Cc1ccc(-c2cc(C(F)(F)F)nn2-c2ccc(S(N)(=O)=O)cc2)cc1 [CELECOXIB]	29.5	42.7	22.8		31.3	36.1
COc1cccc2c1C(=O)c1c(O)c3c(c(O)c1C2=O)C[C@@](O)(C(=O)CO)C[C@@H]3O[C@H]1C[C@H](N)[C@H](O)[C@H](C)O1 [DOXORUBICIN]		26.8				

Source: ChEMBL document CHEMBL4265919, “Structural alterations based on naproxen scaffold: Synthesis, evaluation of antitumor activity and COX-2 inhibition, and molecular docking” (Eur J Med Chem, 2018)
